Where two headings read alike, the source gives them in different places.
Key:
WSU-DLCL2 cells = experiment: Cell proliferation analysis (WSU-DLCL2, Cell Titer Glo); assay type: cell-based; details: Homo sapiens, 6 days
[1] = target: wild-type EZH2 (PRC2 complex) (Homo sapiens (Human), UniProt Q15910); experiment: PRC2 enzyme assay on peptide substrates (wild-type EZH2)
[2] = tested on: H3K27me3 in WSU-DLCL2 cells; experiment: WSU-DLCL2 methylation assay (H3K27me3 ELISA); assay type: cell-based; details: Homo sapiens, 96 hours
[3] = WSUDLCL2, Table 3A, read-out: WSU Prolif. IC50
[4] = WSUDLCL2, Table 3A, read-out: H3K27Me3 ELISA IC50
[5] = WSUDLCL2, Table 3B, read-out: WSU proliferation IC50
[6] = WSUDLCL2, Table 3B, read-out: ELISA H3K27me3 IC50
[7] = read-out: WT EZH2 IC50, Table 3B, wild-type PRC2 enzyme, peptide substrate

wild-type EZH2 (PRC2 complex), sequence (Q15910 other isoform, or with tags, fused parts or gaps): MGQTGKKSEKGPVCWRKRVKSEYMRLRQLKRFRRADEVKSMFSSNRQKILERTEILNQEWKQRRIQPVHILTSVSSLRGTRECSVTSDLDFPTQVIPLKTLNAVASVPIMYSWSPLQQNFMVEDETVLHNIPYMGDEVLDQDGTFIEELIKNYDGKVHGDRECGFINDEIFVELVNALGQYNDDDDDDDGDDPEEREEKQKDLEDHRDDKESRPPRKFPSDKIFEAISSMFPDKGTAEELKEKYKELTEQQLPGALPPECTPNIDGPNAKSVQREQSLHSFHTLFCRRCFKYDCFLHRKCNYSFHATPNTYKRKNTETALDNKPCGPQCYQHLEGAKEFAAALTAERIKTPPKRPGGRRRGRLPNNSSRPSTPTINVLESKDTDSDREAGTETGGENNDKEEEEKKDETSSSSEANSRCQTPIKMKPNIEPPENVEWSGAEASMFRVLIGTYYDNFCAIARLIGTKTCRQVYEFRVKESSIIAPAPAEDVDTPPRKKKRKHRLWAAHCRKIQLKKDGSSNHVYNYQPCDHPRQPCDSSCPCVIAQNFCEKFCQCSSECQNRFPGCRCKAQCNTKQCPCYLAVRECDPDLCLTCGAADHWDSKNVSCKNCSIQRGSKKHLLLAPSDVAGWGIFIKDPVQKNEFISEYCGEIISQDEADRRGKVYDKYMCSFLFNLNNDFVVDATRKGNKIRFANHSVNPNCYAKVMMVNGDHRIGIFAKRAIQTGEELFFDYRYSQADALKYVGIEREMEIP
wild-type EZH2 (PRC2 complex), sequence (O75530 whole entry partner): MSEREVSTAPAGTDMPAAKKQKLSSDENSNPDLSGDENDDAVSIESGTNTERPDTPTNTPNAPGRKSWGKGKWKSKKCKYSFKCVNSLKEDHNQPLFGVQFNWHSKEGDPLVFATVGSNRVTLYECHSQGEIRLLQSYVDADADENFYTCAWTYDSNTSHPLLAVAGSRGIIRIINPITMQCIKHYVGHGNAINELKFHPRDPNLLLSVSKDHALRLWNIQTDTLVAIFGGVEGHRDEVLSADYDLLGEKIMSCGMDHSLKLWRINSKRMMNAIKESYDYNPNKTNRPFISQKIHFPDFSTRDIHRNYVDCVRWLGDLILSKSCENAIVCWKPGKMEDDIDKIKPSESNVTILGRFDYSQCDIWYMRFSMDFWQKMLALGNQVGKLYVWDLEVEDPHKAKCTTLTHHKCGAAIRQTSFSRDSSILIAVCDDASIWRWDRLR
wild-type EZH2 (PRC2 complex), sequence (Q15022 whole entry partner): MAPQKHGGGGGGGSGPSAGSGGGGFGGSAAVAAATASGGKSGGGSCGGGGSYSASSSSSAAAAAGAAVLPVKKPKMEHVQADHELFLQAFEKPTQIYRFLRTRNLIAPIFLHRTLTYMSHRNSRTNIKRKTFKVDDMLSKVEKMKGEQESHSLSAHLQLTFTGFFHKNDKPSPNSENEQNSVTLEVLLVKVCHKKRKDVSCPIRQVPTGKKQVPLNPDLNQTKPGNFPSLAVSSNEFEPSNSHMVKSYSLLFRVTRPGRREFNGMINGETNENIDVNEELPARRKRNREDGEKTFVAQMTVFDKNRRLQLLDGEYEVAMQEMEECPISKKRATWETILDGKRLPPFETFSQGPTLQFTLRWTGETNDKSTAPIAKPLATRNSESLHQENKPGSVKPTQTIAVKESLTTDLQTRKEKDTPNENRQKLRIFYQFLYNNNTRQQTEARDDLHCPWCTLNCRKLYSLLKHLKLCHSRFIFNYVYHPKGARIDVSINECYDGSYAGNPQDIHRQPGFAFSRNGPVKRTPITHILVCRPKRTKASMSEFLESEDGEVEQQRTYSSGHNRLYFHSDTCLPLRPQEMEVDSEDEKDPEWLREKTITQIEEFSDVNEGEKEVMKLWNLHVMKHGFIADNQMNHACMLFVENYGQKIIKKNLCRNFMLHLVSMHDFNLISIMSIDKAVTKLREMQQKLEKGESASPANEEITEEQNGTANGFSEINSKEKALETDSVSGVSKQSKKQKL
wild-type EZH2 (PRC2 complex), sequence (Q09028 whole entry partner): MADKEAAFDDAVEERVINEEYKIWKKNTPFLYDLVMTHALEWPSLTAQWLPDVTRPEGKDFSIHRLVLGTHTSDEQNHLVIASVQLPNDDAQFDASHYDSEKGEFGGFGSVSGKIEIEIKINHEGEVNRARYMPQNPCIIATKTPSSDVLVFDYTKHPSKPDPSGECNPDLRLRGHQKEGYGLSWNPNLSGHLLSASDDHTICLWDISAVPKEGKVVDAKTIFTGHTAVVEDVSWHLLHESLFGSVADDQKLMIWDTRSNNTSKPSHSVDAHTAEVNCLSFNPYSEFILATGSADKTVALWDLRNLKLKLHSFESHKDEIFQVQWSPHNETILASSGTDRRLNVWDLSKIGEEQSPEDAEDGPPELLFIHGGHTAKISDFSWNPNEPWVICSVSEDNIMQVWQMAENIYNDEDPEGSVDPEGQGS

Row | IC50 [1] [nM] | IC50 [2, 4] [nM] | IC50 [2, 6] [nM] | IC50 [1, 7] [nM] | Structure (SMILES) | IC50 (WSU-DLCL2 cells; [3]) [nM] | IC50 (WSU-DLCL2 cells; [5]) [nM]
1 | 11.3 | – | – | – | CCN(c1cc(-c2ccc(OCCO)cc2)cc(C(=O)NCc2c(C)cc(C)[nH]c2=O)c1C)[C@H]1CC[C@H](N(C)C)CC1 [Compound 3, N-((4,6-dimethyl-2-oxo-1,2-dihydropyridin-3-yl)methyl)-5-(((trans)-4-(dimethylamino)cyclohexyl)(ethyl)amino)-4′-(2-hydroxyethoxy)-4-methyl-[1,1′-biphenyl]-3-carboxamide] | 186 | –
2 | 8.9 | 21800 | – | – | CCN(c1cc(-c2ccc(OCCO)nc2)cc(C(=O)NCc2c(C)cc(C)[nH]c2=O)c1C)[C@H]1CC[C@H](N(C)C)CC1 [Compound 4, N-((4,6-dimethyl-2-oxo-1,2-dihydropyridin-3-yl)methyl)-3-(((trans)-4-(dimethylamino)cyclohexyl)(ethyl)amino)-5-(6-(2-hydroxyethoxy)pyridin-3-yl)-2-methylbenzamide] | 23600 | –
3 | 21 | 458 | – | – | CCN(c1cc(C#CCN2CCN(C)CC2)cc(C(=O)NCc2c(C)cc(C)[nH]c2=O)c1C)[C@H]1CC[C@H](N(C)CCOC)CC1 [Compound 7, N-((4,6-dimethyl-2-oxo-1,2-dihydropyridin-3-yl)methyl)-3-(ethyl((trans)-4-((2-methoxyethyl)(methyl)amino)cyclohexyl)amino)-2-methyl-5-(3-(4-methylpiperazin-1-yl)prop-1-yn-1-yl)benzamide] | 651 | –
4 | 5.3 | 515 | – | – | CCN(c1cc(F)cc(C(=O)NCc2c(C)cc(C)[nH]c2=O)c1C)[C@H]1CC[C@H](N(C)CCOC)CC1 [Compound 9, N-((4,6-dimethyl-2-oxo-1,2-dihydropyridin-3-yl)methyl)-3-(ethyl((trans)-4-((2-methoxyethyl)(methyl)amino)cyclohexyl)amino)-5-fluoro-2-methylbenzamide] | 1310 | –
5 | 7.36 | 469 | – | – | CCN(c1cccc(C(=O)NCc2c(C)cc(C)[nH]c2=O)c1C)[C@H]1CC[C@H](N(C)CCOC)CC1 [Compound 10, N-((4,6-dimethyl-2-oxo-1,2-dihydropyridin-3-yl)methyl)-3-(ethyl((trans)-4-((2-methoxyethyl)(methyl)amino)cyclohexyl)amino)-2-methylbenzamide] | 307 | –
6 | 4.86 | 340 | – | – | CCN(c1cc(-c2ccc(C)nc2)cc(C(=O)NCc2c(C)cc(C)[nH]c2=O)c1C)[C@H]1CC[C@H](N(C)CCOC)CC1 [Compound 15] | 346 | –
7 | 5.96 | 287 | – | – | CCN(c1cc(-c2ccc(OC)nc2)cc(C(=O)NCc2c(C)cc(C)[nH]c2=O)c1C)[C@H]1CC[C@H](N(C)CCOC)CC1 [Compound 16] | 675 | –
8 | 12.9 | 402 | – | – | CCN(c1cc(-c2cnc(OC)cn2)cc(C(=O)NCc2c(C)cc(C)[nH]c2=O)c1C)[C@H]1CC[C@H](N(C)CCOC)CC1 [Compound 17] | 507 | –
9 | 10.1 | 840 | – | – | CCN(c1cc(-c2cncnc2)cc(C(=O)NCc2c(C)cc(C)[nH]c2=O)c1C)[C@H]1CC[C@H](N(C)CCOC)CC1 [Compound 21] | 1390 | –
10 | 8.9 | 650 | – | – | CCN(c1cc(C2CCOCC2)cc(C(=O)NCc2c(C)cc(C)[nH]c2=O)c1C)[C@H]1CC[C@H](N(C)CCOC)CC1 [Compound 25] | 2220 | –
11 | – | – | 126 | < 10 | CCN(c1cc(C#CCN2C[C@@H](C)N[C@@H](C)C2)cc(C(=O)NCc2c(C(C)C)cc(C)[nH]c2=O)c1C)C1CCOCC1 [Compound 101] | – | 536
12 | – | – | 256 | 10 | CCN(c1cc(C#CC2CCN(C[C@@H](C)O)CC2)cc(C(=O)NCc2c(C(C)C)cc(C)[nH]c2=O)c1C)C1CCOCC1 [Compound 102] | – | 614
13 | – | – | 232 | < 10 | CCN(c1cc(C#CC2CCN(C[C@H](C)O)CC2)cc(C(=O)NCc2c(C(C)C)cc(C)[nH]c2=O)c1C)C1CCOCC1 [Compound 103] | – | 745
14 | – | – | 66 | < 10 | CCN1CCC(C#Cc2cc(C(=O)NCc3c(C)cc(C)[nH]c3=O)c(C)c(N(CC)C3CCOCC3)c2)CC1 [Compound 104] | – | 549
15 | – | – | 44 | < 10 | CCN(c1cc(C#CCN2CCCCC2)cc(C(=O)NCc2c(C)cc(C)[nH]c2=O)c1C)C1CCOCC1 [Compound 106] | – | 188
16 | – | – | 28 | 11 | CCN(c1cc(C#CCN2CCCC2)cc(C(=O)NCc2c(C)cc(C)[nH]c2=O)c1C)C1CCOCC1 [Compound 107] | – | 26.2
17 | – | – | 42 | < 10 | CCN(c1cc(C#CCN2CCC[C@H](O)C2)cc(C(=O)NCc2c(C)cc(C)[nH]c2=O)c1C)[C@H]1CC[C@H](N(C)C)CC1 [Compound 108] | – | 438
18 | – | – | 244 | < 10 | CCN(c1cc(C#CCN2CC(O)C2)cc(C(=O)NCc2c(C)cc(C)[nH]c2=O)c1C)[C@H]1CC[C@H](N(C)C)CC1 [Compound 109] | – | 1060
19 | – | – | 2010 | < 10 | CCN(c1cc(C#CCN2CC(O)C2)cc(C(=O)NCc2c(C(C)C)cc(C)[nH]c2=O)c1C)[C@H]1CC[C@H](N(C)C)CC1 [Compound 110] | – | 2450
20 | – | – | 13900 | < 10 | CCN(c1cc(-c2ccc(CN3CCOCC3)nc2)cc(C(=O)NCc2c(C)cc(C)[nH]c2=O)c1C)C1C[C@@H](C)N[C@H](C)C1 (some centres unmarked) [Compound 121] | – | 3830
21 | – | – | > 25000 | < 10 | CCN(c1cc(-c2ccc(CN3CCN(C)CC3)nc2)cc(C(=O)NCc2c(C)cc(C)[nH]c2=O)c1C)C1C[C@@H](C)N[C@H](C)C1 (some centres unmarked) [Compound 122] | – | 7560
22 | – | – | > 25000 | < 10 | CCN(c1cc(-c2ccc(CN3CCNCC3)nc2)cc(C(=O)NCc2c(C)cc(C)[nH]c2=O)c1C)C1C[C@@H](C)N[C@H](C)C1 (some centres unmarked) [Compound 123] | – | 7900
23 | – | – | 2030 | < 10 | CCN(c1cc(-c2cnc(OC)cn2)cc(C(=O)NCc2c(C(C)C)cc(C)[nH]c2=O)c1C)C1CCOCC1 [Compound 126] | – | 906
24 | – | – | 525 | < 10 | CCN(c1cc(-c2cnc(OC(C)C)cn2)cc(C(=O)NCc2c(C)cc(C)[nH]c2=O)c1C)C1CCOCC1 [Compound 127] | – | 717
25 | – | – | 1550 | < 10 | CCN(c1cc(-c2cnc(C(F)(F)F)cn2)cc(C(=O)NCc2c(C)cc(C)[nH]c2=O)c1C)C1CCOCC1 [Compound 128] | – | 975
26 | – | – | 306 | < 10 | CCN(c1cc(-c2cnc(OC3CN(C)C3)cn2)cc(C(=O)NCc2c(C)cc(C)[nH]c2=O)c1C)C1CCOCC1 [Compound 131] | – | 194
27 | – | – | 177 | 20 | CCN(c1cc(-c2cnc(OC3CCN(C)CC3)cn2)cc(C(=O)NCc2c(C)cc(C)[nH]c2=O)c1C)C1CCOCC1 [Compound 132] | – | 526
28 | – | – | 161 | < 10 | CCN(c1cc(-c2ccc(CN3CCCN(C)CC3)nc2)cc(C(=O)NCc2c(C)cc(C)[nH]c2=O)c1C)[C@H]1CC[C@H](N(C)C)CC1 [Compound 146] | – | 217
29 | – | – | 74.3 | < 10 | CCN(c1cc(-c2ccc(CN3CCC[C@H](O)C3)nc2)cc(C(=O)NCc2c(C)cc(C)[nH]c2=O)c1C)[C@H]1CC[C@H](N(C)C)CC1 [Compound 147] | – | 116

Row | Structure (SMILES) | IC50 [1] [nM] | IC50 [2, 4] [nM] | IC50 [2, 6] [nM] | IC50 [1, 7] [nM] | IC50 (WSU-DLCL2 cells; [3]) [nM] | IC50 (WSU-DLCL2 cells; [5]) [nM]
30 | CCN(c1cc(C#CC(C)(C)O)cc(C(=O)NCc2c(C)cc(C)[nH]c2=O)c1C)[C@H]1CC[C@H](N(C)CCOC)CC1 [Compound 8, N-((4,6-dimethyl-2-oxo-1,2-dihydropyridin-3-yl)methyl)-3-(ethyl((trans)-4-((2-methoxyethyl)(methyl)amino)cyclohexyl)amino)-5-(3-hydroxy-3-methylbut-1-yn-1-yl)-2-methylbenzamide] | 8.82 | 292 | – | – | 110 | –
31 | CCN(c1cc(F)cc(C(=O)NCc2c(C)cc(C)n(C)c2=O)c1C)C1C[C@@H](C)N[C@H](C)C1 (some centres unmarked) [Compound 113] | – | – | > 25000 | 1220 | – | > 20000
32 | CCN(c1cc(F)cc(C(=O)NCc2c(C)c(F)c(C)n(C)c2=O)c1C)C1C[C@@H](C)N[C@H](C)C1 (some centres unmarked) [Compound 115] | – | – | > 25000 | 497 | – | > 20000
33 | CCCc1cc(C)[nH]c(=O)c1CNC(=O)c1cc(F)cc(N(CC)C2C[C@@H](C)N[C@H](C)C2)c1C (some centres unmarked) [Compound 116] | – | – | > 25000 | 132 | – | 13200
34 | CCN(c1cc(F)cc(C(=O)NCc2c(C(C)C)cc(C)[nH]c2=O)c1C)C1C[C@@H](C)N[C@H](C)C1 (some centres unmarked) [Compound 117] | – | – | 8960 | 350 | – | > 20000
35 | CCN(c1cc(F)cc(C(=O)NCc2c(C)cc(C)[nH]c2=O)c1C)C1C[C@@H](C)N(C)[C@H](C)C1 (some centres unmarked) [Compound 118] | – | – | 11700 | 36.3 | – | 3950
36 | CCN(c1cc(F)cc(C(=O)NCc2c(C)cc(C)[nH]c2=O)c1C)C1C[C@@H](C)N(CC)[C@H](C)C1 (some centres unmarked) [Compound 119] | – | – | 11300 | 18.5 | – | 3380
37 | CCN(c1cc(-c2ccc(OC)nc2)cc(C(=O)NCc2c(C)cc(C)[nH]c2=O)c1C)C1C[C@@H](C)N[C@H](C)C1 (some centres unmarked) [Compound 120] | – | – | 1430 | < 10 | – | 1380

From patent US11642348B2, “Substituted benzene compounds” (Epizyme, Inc., priority 2012, dated 2023)
